Data taken from patent US20260199323A1, “LIGAND COMPOUNDS FOR E3 UBIQUITIN LIGASE, PROTEIN DEGRADERS DEVELOPED ON BASIS OF LIGAND COMPOUNDS, AND USES THEREOF” (GLUETACS THERAPEUTICS (SHANGHAI) CO., LTD., priority 2021, published 2026).
Like-named read-outs stand apart in the source and are kept apart here.

Columns and labels:
CCRF-CEM = test: CCK-8 tumor cell proliferation, CCRF-CEM; type: cell-based, Human; conditions: CCRF-CEM, read-out: IC50 inhibiting proliferation of tumor cells, CCRF-CEM
In short: (§1)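 STR-authenticated, mycoplasma-negative cells were cultured at 37 °C with 5% CO2. One day after plating, they were treated with a 5-fold serial dilution of compound (10 points, highest 10 μM). CCK-8 was used to assess viability, giving IC50 values.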

HCC827 = test: CCK-8 tumor cell proliferation, HCC827; type: cell-based, Human; conditions: Homo sapiens; Table 20, BCL-2 inhibitor based; HCC827; read-out: IC50 inhibiting proliferation of tumor cells, HCC827
Experimental: The tumor cells used herein were cultured in a cell culture medium listed in table 4 at 37° C. in an incubator with 5% CO2.
(§2) After 24 h, 100 μL of the inoculated cells were treated with 0.5 μL of the compounds of the present disclosure (including the compounds in Tables 1 and 3, and compounds of examples) at 10 different successively decreasing concentrations (starting at the highest concentration of 10 μM; 5-fold serial dilutions). After the cells were treated with the compounds of the present disclosure for a period of time, the cell viability detection reagent was added to the culture medium for cell viability assessment according to the instructions provided with the CCK-8 kit. […] The growth inhibition of the compounds of the present disclosure on cells was plotted by Prism Graphpad software, and the IC50 values of the compounds of the present disclosure were calculated therefrom.

MDA-MB-231 = test: CCK-8 tumor cell proliferation, MDA-MB-231; type: cell-based, Human; conditions: Homo sapiens; Table 20, BCL-2 inhibitor based; MDA-MB-231; read-out: IC50 inhibiting proliferation of tumor cells, MDA-MB-231
In short: as §1

MM.1S = test: CCK-8 tumor cell proliferation, MM.1S; type: cell-based; conditions: Homo sapiens, MM1.S; Table 20, BCL-2 inhibitor based; MM.1S; read-out: IC50 inhibiting proliferation of tumor cells, MM.1S
In short: as §1

SR = test: CCK-8 tumor cell proliferation, SR; type: cell-based, Human; conditions: Homo sapiens; Table 20, BCL-2 inhibitor based; SR; read-out: IC50 inhibiting proliferation of tumor cells, SR
In short: as §1

MM.1R = test: CCK-8 tumor cell proliferation, MM.1R; type: cell-based; conditions: Table 20, BCL-2 inhibitor based, read-out: IC50 inhibiting proliferation of tumor cells, MM.1R
In short: as §1

LNcap = test: CCK-8 tumor cell proliferation, LNcap; type: cell-based, Human
Experimental: (§3) The tumor cells used herein were cultured in a cell culture medium listed in table 4 at 37° C. in an incubator with 5% CO2. Prior to experimentation, all cells used were correctly identified by STR profiling, and tested negative for mycoplasma through routine screenings.
as §2, with “IC50 values of the compounds of the present disclosure (including the compounds in Tables 1 and 3, and compounds of examples) were measured using the Meilun Cell Counting Kit-8 kit from Dalian Meilun Biotech Co., Ltd. Assay details are as follows: tumor cells were seeded in a 96-well plate at a density listed in Table 5. After 24” for “After 24”

SU-DHL-4 = test: CCK-8 tumor cell proliferation, SU-DHL-4; type: cell-based, Human; conditions: Table 19, IRAK4 inhibitor based, read-out: IC50 inhibiting proliferation of tumor cells, SU-DHL-4
Experimental: as §3
as §2, with “IC50 values of the compounds of the present disclosure (including the compounds in Tables 1 and 3, and compounds of examples) were measured using the Meilun Cell Counting Kit-8 kit from Dalian Meilun Biotech Co., Ltd. Assay details are as follows: tumor cells were seeded in a 96-well plate at a density listed in Table 5. After 24” for “After 24”

Mino = test: CCK-8 tumor cell proliferation, Mino; type: cell-based, Human; conditions: Homo sapiens; Table 19, IRAK4 inhibitor based; Mino; read-out: IC50 inhibiting proliferation of tumor cells, Mino
In short: as §1

MV-4-11 = test: CCK-8 tumor cell proliferation, MV-4-11; type: cell-based, Human; conditions: Homo sapiens, MV4-11; Table 19, IRAK4 inhibitor based; MV-4-11; read-out: IC50 inhibiting proliferation of tumor cells, MV-4-11
Experimental: as §3
as §2, with “IC50 values of the compounds of the present disclosure (including the compounds in Tables 1 and 3, and compounds of examples) were measured using the Meilun Cell Counting Kit-8 kit from Dalian Meilun Biotech Co., Ltd. Assay details are as follows: tumor cells were seeded in a 96-well plate at a density listed in Table 5. After 24” for “After 24”

SW620 = test: CCK-8 tumor cell proliferation, SW620; type: cell-based, Human; conditions: Table 19, IRAK4 inhibitor based, SW620, read-out: IC50 inhibiting proliferation of tumor cells, SW620
In short: as §1

Jurkat = test: CCK-8 tumor cell proliferation, Jurkat; type: cell-based, Human; conditions: Table 19, IRAK4 inhibitor based, read-out: IC50 inhibiting proliferation of tumor cells, Jurkat
In short: as §1

CAL-62 = test: CCK-8 tumor cell proliferation, CAL-62; type: cell-based, Human; conditions: Table 19, IRAK4 inhibitor based, CAL-62, read-out: IC50 inhibiting proliferation of tumor cells, CAL-62
In short: as §1

[1] = Homo sapiens, Table 20, BCL-2 inhibitor based
[2] = Homo sapiens, Table 20, BCL-2 inhibitor based, LNcap, read-out: IC50 inhibiting proliferation of tumor cells, LNcap
[3] = Homo sapiens, Table 19, IRAK4 inhibitor based
[4] = Homo sapiens, Table 19, IRAK4 inhibitor based, Lncap, read-out: IC50 inhibiting proliferation of tumor cells, Lncap

Structure (SMILES)	IC50 (SU-DHL-4; Homo sapiens) [nM]	IC50 (SW620; Homo sapiens, SW-620) [nM]	IC50 (CCRF-CEM; [3]) [nM]	IC50 (LNcap; [4]) [nM]	IC50 (Jurkat; Homo sapiens) [nM]	IC50 (CAL-62; Homo sapiens) [nM]	other results
CC1(C)CCC(c2ccc(Cl)cc2)=C(CN2CCN(c3ccc(C(=O)NS(=O)(=O)c4ccc(N[C@H](CCN5CCN(Cc6ccc7c(c6F)CN(C6CCC(=O)NC6=O)C7=O)CC5)CSc5ccccc5)c(S(=O)(=O)C(F)(F)F)c4)cc3)CC2)C1 (stereo partly drawn) [GT-03478, 4-(4-((4′-chloro-4,4-dimethyl-3,4,5,6-tetrahydro-[1,1′-biphenyl]-2-yl)methyl)piperazin-1-yl)-N-((4-(((2R)-4-(4-((2-(2,6-dioxopiperidin-3-yl)-4-fluoro-1-oxoisoindolin-5-yl)methyl)piperazin-1-yl)-1-(phenylthio)butan-2-yl)amino)-3-((trifluoromethyl)sulfonyl)phenyl)sulfonyl)benzamide]	–	–	–	–	–	–	IC50 (CCRF-CEM; [1]): < 50 nM; IC50 (HCC827): < 50 nM; IC50 (MDA-MB-231): < 50 nM; IC50 (MM.1S): < 50 nM; IC50 (SR): < 50 nM; IC50 (MM.1R): < 50 nM; IC50 (LNcap; [2]): < 50 nM
CC1(C)CCC(c2ccc(Cl)cc2)=C(CN2CCN(c3ccc(C(=O)NS(=O)(=O)c4ccc(N[C@H](CCN5CCN(Cc6cc(F)c7c(c6)CN(C6CCC(=O)NC6=O)C7=O)CC5)CSc5ccccc5)c(S(=O)(=O)C(F)(F)F)c4)cc3)CC2)C1 (stereo partly drawn) [GT-03479, 4-(4-((4′-chloro-4,4-dimethyl-3,4,5,6-tetrahydro-[1,1′-biphenyl]-2-yl)methyl)piperazin-1-yl)-N-((4-(((2R)-4-(4-((2-(2,6-dioxopiperidin-3-yl)-7-fluoro-1-oxoisoindolin-5-yl)methyl)piperazin-1-yl)-1-(phenylthio)butan-2-yl)amino)-3-((trifluoromethyl)sulfonyl)phenyl)sulfonyl)benzamide]	–	–	–	–	–	–	IC50 (CCRF-CEM; [1]): < 50 nM; IC50 (HCC827): 100 to 500 nM; IC50 (MDA-MB-231): < 50 nM; IC50 (MM.1S): < 50 nM; IC50 (SR): < 50 nM; IC50 (MM.1R): < 50 nM; IC50 (LNcap; [2]): < 50 nM
O=C1CCC(N2Cc3cc(CN4CCC(n5cc(NC(=O)c6cnn7ccc(N8CCOCC8)nc67)c(C(F)F)n5)CC4)cc(F)c3C2=O)C(=O)N1 (centres unmarked) [GT-03812, N-(3-(difluoromethyl)-1-(1-((2-(2,6-dioxopiperidin-3-yl)-7-fluoro-1-oxoisoindolin-5-yl)methyl)piperidin-4-yl)-1H-pyrazol-4-yl)-5-morpholinopyrazolo[1,5-a]pyrimidine-3-carboxamide]	1000 to 5000	1000 to 5000	–	–	–	–	IC50 (Mino): 100 to 500 nM; IC50 (MV-4-11): 100 to 500 nM
O=C1CCC(N2C(=O)c3ccc(CN4CCC(n5cc(NC(=O)c6cnn7ccc(N8CCOCC8)nc67)c(C(F)F)n5)CC4)cc3C2=O)C(=O)N1 (centres unmarked) [GT-03815, N-(3-(difluoromethyl)-1-(1-((2-(2,6-dioxopiperidin-3-yl)-1,3-dioxoisoindolin-5-yl)methyl)piperidin-4-yl)-1H-pyrazol-4-yl)-5-morpholinopyrazolo[1,5-a]pyrimidine-3-carboxamide]	5000 to 10000	–	–	–	–	–	IC50 (Mino): 1000 to 5000 nM
CC(C)Nc1cc(-n2ccc3cc(C#N)cnc32)ncc1C(=O)N[C@H]1CC[C@H](C(=O)NCc2ccc3c(c2)CN(C2CCC(=O)NC2=O)C3=O)CC1 (some centres unmarked) [GT-04077, 6-(5-cyano-1H-pyrrolo[2,3-b]pyridin-1-yl)-N-((1r,4r)-4-(((2-(2,6-dioxopiperidin-3-yl)-1-oxoisoindolin-5-yl)methyl)carbamoyl)cyclohexyl)-4-(isopropylamino)nicotinamide]	–	–	–	–	–	–	IC50 (SU-DHL-4): 500 to 1000 nM; IC50 (CCRF-CEM; Table 19, IRAK4 inhibitor based): < 50 nM; IC50 (SW620): 100 to 500 nM; IC50 (LNcap; Table 19, IRAK4 inhibitor based, Lncap, read-out: IC50 inhibiting proliferation of tumor cells, Lncap): 100 to 500 nM; IC50 (Jurkat): < 50 nM; IC50 (CAL-62): < 50 nM

Further lines, with some results ahead:

IC50 (SU-DHL-4; Homo sapiens) [nM]	IC50 (SW620; Homo sapiens, SW-620) [nM]	IC50 (CCRF-CEM; [3]) [nM]	IC50 (LNcap; [4]) [nM]	IC50 (Jurkat; Homo sapiens) [nM]	IC50 (CAL-62; Homo sapiens) [nM]	Structure (SMILES)	other results
< 50	< 50	< 50	< 50	< 50	< 50	O=C1CCC(N2Cc3c(ccc(CN4CCC(n5cc(NC(=O)c6coc(-c7ccnc(NCC(F)(F)F)c7)n6)c(C(F)F)n5)CC4)c3F)C2=O)C(=O)N1 (centres unmarked) [GT-04098, N-(3-(difluoromethyl)-1-(1-((2-(2,6-dioxopiperidin-3-yl)-4-fluoro-1-oxoisoindolin-5-yl)methyl)piperidin-4-yl)-1H-pyrazol-4-yl)-2-(2-((2,2,2-trifluoroethyl)amino)pyridin-4-yl)oxazole-4-carboxamide]	–
100 to 500	< 50	< 50	< 50	< 50	< 50	O=C1CCC(N2Cc3cc(CN4CCC(n5cc(NC(=O)c6coc(-c7ccnc(NCC(F)(F)F)c7)n6)c(C(F)F)n5)CC4)cc(F)c3C2=O)C(=O)N1 (centres unmarked) [GT-04099, N-(3-(difluoromethyl)-1-(1-((2-(2,6-dioxopiperidin-3-yl)-7-fluoro-1-oxoisoindolin-5-yl)methyl)piperidin-4-yl)-1H-pyrazol-4-yl)-2-(2-((2,2,2-trifluoroethyl)amino)pyridin-4-yl)oxazole-4-carboxamide]	–
< 50	< 50	< 50	< 50	< 50	< 50	O=C1CCC(N2Cc3cc(CN4CCC(n5cc(NC(=O)c6coc(-c7ccnc(NCC(F)(F)F)c7)n6)c(C(F)F)n5)CC4)ccc3C2=O)C(=O)N1 (centres unmarked) [GT-04120, N-(3-(difluoromethyl)-1-(1-((2-(2,6-dioxopiperidin-3-yl)-1-oxoisoindolin-5-yl)methyl)piperidin-4-yl)-1H-pyrazol-4-yl)-2-(2-((2,2,2-trifluoroethyl)amino)pyridin-4-yl)oxazole-4-carboxamide]	–
< 50	< 50	< 50	< 50	< 50	< 50	O=C1CCC(N2Cc3cc(CN4CCC(n5cc(NC(=O)c6coc(-c7ccnc(NCC8CC8)c7)n6)c(C(F)F)n5)CC4)ccc3C2=O)C(=O)N1 (centres unmarked) [GT-04153, 2-(2-((cyclopropylmethyl)amino)pyridin-4-yl)-N-(3-(difluoromethyl)-1-(1-((2-(2,6-dioxopiperidin-3-yl)-1-oxoisoindolin-5-yl)methyl)piperidin-4-yl)-1H-pyrazol-4-yl)oxazole-4-carboxamide]	–
